For data set [1], the system named is MES-induced seizures. Briefly: Maximal Electroshock Seizure (MES) test, mice. Type of data set: in vivo. Particulars: Mus musculus, ip, mice, i.p. The essentials: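 Seizures were induced by a 60 Hz corneal current for 2 s (50 mA in CF1 mice, 150 mA in Sprague-Dawley rats). Mice received 30, 100 or 300 mg/kg i.p. in 0.5% methylcellulose and were tested at several intervals; rats received 30 mg/kg p.o. Protection means abolition of hind-limb tonic extension.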

Data set [2] concerns MES-induced seizures. Briefly: Maximal Electroshock Seizure (MES) test, rats. The class given is in vivo. Particulars: rat, p.o., 30 mg/kg. As for the experimental part:
Toxicity was measured using the minimal motor impairment test described below.
The MES test is a model for generalized tonic-clonic seizures. The seizures are highly reproducible and electrophysiologically consistent with human seizures. The test provides information about a compound's ability to prevent the spread of seizure when all neuronal circuits of the brain are maximally active. 60 Hz of alternating current (50 mA in mice, 150 mA in rats) is applied for 2 seconds via corneal electrodes that have been treated with an electrolyte solution containing an anesthetic (0.5% tetracaine HCl). Mice are tested at a variety of intervals after an i.p. injection of […] solution of the test compound (commonly in a 0.5% solution of methylcellulose) at 30, 100, and 300 mg/kg doses. Rats are examined after a 30 mg/kg (per os, p.o.) dose that is applied in a volume of 0.04 mL/g. An animal is considered “protected” from MES-induced seizures upon removal of the hind limb extensor component of the seizure.
Male and female albino CF1 mice (18-25 g, Charles River, Portage, Mich.) and male albino Sprague-Dawley rats (275-300 g, kindling test; 100-150 g all other tests; Charles River, Raleigh, N.C.) were used as experimental animals.

Data set [3] in a line: Acute toxicity, minimal motor impairment (rotorod), mice. The class given is in vivo. Particulars: mice, rotorod. The essentials:
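Mice placed on a rod rotating at 6 rpm; a compound is scored toxic when the animal falls off three times within 1 min. In rats, minimal motor deficit is scored as ataxia, an abnormal uncoordinated gait.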

Data set [4] concerns the target T1, cloned, human D1 receptor (Homo sapiens, UniProt P21728).
T1 construct: expressed in transfected cells
Briefly: Radioligand competition binding assay, [3H]SCH23390. An excerpt:
Receptor binding profiles were provided by the National Institute of Mental Health's Psychoactive Drug Screening Program, Contract # N01 MH32004 (NIMH PDSP) The NIMH PDSP is directed by Bryan L. Roth M. D., Ph.D. at the University of North Carolina at Chapel Hill and Project Officer Jamie Driscol at NIMH, Bethesda Md., USA. Protocols for receptor-based assays by the PDSP may be found on the website: http://pdsp.med.unc.edu/pdspw/binding.php and http://pdsp.med.unc.edu/pdspw/function.php (Apr. 30, 2008).
Radioligand competition binding assays were performed as previously described (Rothman, R. B., Baumann, M. H., Savage, J. E., Rauser, L., McBride, Hufeisen, S. J., Roth B. L. Circulation (2000) 102:2836-2841) for Compounds 7 and 16. Briefly, test compounds were dissolved to 10 mM in 100% DMSO, then diluted to the desired concentrations (spanning seven orders of magnitude) in Dopamine Binding Buffer (50 mM NaCl, 50 mM HEPES, 5 mM MgCl2, 0.5 mM EDTA, pH 7.4). Diluted test and reference compounds were added to wells containing radioligand ([^3H]SCH23390, 0.3 nM final concentration) and buffer, then membrane fractions from cells stably expressing cloned, human D1 or D5 receptors were added and binding was allowed to equilibrate at room temperature for 1.5 hours. At equilibrium, reactions were filtered (using a FilterMate 96-well harvester, PerkinElmer) onto GF-A glass fiber filters (Wallac) and allowed to dry. Meltilex scintillant (Wallac) was melted onto the dry filters, and then allowed to cool. Filters were then sealed in plastic bags and counted on a Wallac TriLux microbeta counter.
Raw data (dpm) representing total radioligand binding (i.e., specific+non-specific binding) were plotted as a function of the logarithm of the molar concentration of the competitor (i.e., test or reference compound). Non-linear regression of the normalized (i.e., percent radioligand binding compared to that observed in the absence of test or reference compound) raw data is performed in Prism 4.0 (GraphPad Software) using the built-in three parameter logistic model describing ligand competition binding to radioligand-labeled sites: y=bottom+[(top−bottom)/(1+10^x−logIC50)] where bottom equals the residual radioligand binding measured in the presence of 10 μM reference compound (i.e., non-specific binding) and top equals the total radioligand binding observed in the absence of competitor. The log IC50 (i.e., the log of the ligand concentration that reduces radioligand binding by 50%) is thus estimated from the data and used to obtain the Ki by applying the Cheng-Prusoff approximation: Ki=IC50/(1+[ligand]/KD) where [ligand] equals the assay radioligand concentration and KD equals the affinity constant of the radioligand for the target receptor.

For data set [5], the system named is metrazole-induced clonic seizures. In words: Subcutaneous Metrazole Seizure Threshold Test (scMET), rats. Type of data set: in vivo. Particulars: rat, row printed as 300, 0.4 h.
The test system is the same in data set [6]. Briefly: Subcutaneous Metrazole Seizure Threshold Test (scMET), mice. The class given is in vivo. Particulars: Mus musculus, sc, mice. In outline: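 CF1 mice dosed with test compound at 30, 100 and 300 mg/kg; Sprague-Dawley rats at 50 mg/kg p.o. At compound TPE, metrazole at CD97 (85 mg/kg in mice) injected s.c. in the neck. Animals observed 30 min; endpoint is a 3-5 s clonic spasm episode.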

From US8222218B2, “Cyclopropanated carbohydrates” (Seton Hall University, priority 2008, dated 2012) come the findings set out here.

Where two headings read alike, the source gives them in different places.

T1 sequence (P21728 whole entry): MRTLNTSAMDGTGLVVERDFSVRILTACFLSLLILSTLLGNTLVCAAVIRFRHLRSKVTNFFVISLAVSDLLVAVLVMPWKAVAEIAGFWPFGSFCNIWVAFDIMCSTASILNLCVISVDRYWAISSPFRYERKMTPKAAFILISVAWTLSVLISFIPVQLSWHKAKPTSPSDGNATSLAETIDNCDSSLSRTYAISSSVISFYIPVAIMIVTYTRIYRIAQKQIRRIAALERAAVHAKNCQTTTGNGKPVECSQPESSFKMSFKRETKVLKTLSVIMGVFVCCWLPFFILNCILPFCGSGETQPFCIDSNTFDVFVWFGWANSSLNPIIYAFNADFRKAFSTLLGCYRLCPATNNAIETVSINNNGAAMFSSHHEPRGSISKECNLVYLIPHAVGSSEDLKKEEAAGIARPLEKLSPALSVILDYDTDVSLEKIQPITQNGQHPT

For `CCOC(=O)C1[C@@H]2[C@@H](O)[C@@H]3O[C@H](c4ccc(OC)cc4)OC[C@H]3O[C@H]12` (stereo partly drawn) [Compound 16, ethyl (2R,4aR,5aS,6aR,7R,7aS)-7-hydroxy-2-(4-methoxyphenyl)hexahydro-4H-cyclopropa[5,6]pyrano[3,2-d][1,3]dioxine-6-carboxylate], the responders at 30 mg/kg with MES-induced seizures [1] (0.5 h, read-out: MES 30 0.5 h (animals protected/tested)) came out at 0%; in the data set with MES-induced seizures [1] (4 h, read-out: MES 30 4 h (animals protected/tested)), 0%; in data set [6] (0.4 h, read-out: scMET 30 0.4 h (animals protected/tested)), 0%; in data set [6] (0.5 h, read-out: scMET 30 0.5 h (animals protected/tested)), 0%. Further, the responders at 100 mg/kg amounted to 0% with MES-induced seizures [1] (0.5 h, read-out: MES 100 0.5 h (animals protected/tested)); 0% in the data set with MES-induced seizures [1] (4 h, read-out: MES 100 4 h (animals protected/tested)); 0% in data set [6] (0.4 h, read-out: scMET 100 0.4 h (animals protected/tested)); 0% in data set [6] (0.5 h, read-out: scMET 100 0.5 h (animals protected/tested)). Moreover, the responders at 300 mg/kg came out at 0% with MES-induced seizures [1] (0.5 h, read-out: MES 300 0.5 h (animals protected/tested)); 0% in the data set with MES-induced seizures [1] (4 h, read-out: MES 300 4 h (animals protected/tested)); 0% in data set [6] (0.4 h, read-out: scMET 300 0.4 h (animals protected/tested)); 0% in data set [6] (0.5 h, read-out: scMET 300 0.5 h (animals protected/tested)). The “MES 30 0.5 h (animals protected/tested)” value in the data set on MES-induced seizures [2] (0.5 h) is recorded as 0/4. In addition, the “MES 30 4 h (animals protected/tested)” value in the data set with MES-induced seizures [2] (4 h) is 1/4. The “TOX 30 0.5 h (animals toxic/tested)” value in data set [3] (30 mg/kg, 0.5 h) is listed as 0/4. In addition, in data set [3] (30 mg/kg, 4 h), the “TOX 30 4 h (animals toxic/tested)” value is recorded as 0/2. In addition, the “TOX 100 0.5 h (animals toxic/tested)” value in data set [3] (100 mg/kg, 0.5 h) is given as 2/8. Also, in data set [3] (100 mg/kg, 4 h), the “TOX 100 4 h (animals toxic/tested)” value was 0/4. Besides, the “TOX 300 0.5 h (animals toxic/tested)” value in data set [3] (300 mg/kg, 0.5 h) is recorded as 3/4. In addition, the “TOX 300 4 h (animals toxic/tested)” value in data set [3] (300 mg/kg, 4 h) is reported as 1/2. This molecule also showed a Ki in data set [4] (D1 dopamine receptor, [3H]SCH23390 0.3 nM, Cheng-Prusoff) of 4.74 µM. Moreover, the “inhibition of the D1 dopamine receptor” value in data set [4] (radioligand competition binding) is given as “significant inhibition”. For the same molecule, the “scMET 300 0.4 h (animals protected/tested)” value in data set [5] is recorded as 0/4.
